From patent US11351268B2, “FGF21 C-terminal peptide optimization” (INDIANA UNIVERSITY RESEARCH AND TECHNOLOGY CORPORATION, priority 2016, dated 2022)
Non-standard residues stand in square brackets, D forms with d. Residues, ends and D or L forms follow the SMILES beside them. No end group written: not given here.

Target: T1, Klotho β (KLB) (Homo sapiens, UniProt Q86Z14)
T1 construct: expressed in transfected cells; host or cells: HEK 293T (ATCC), pooled Zeocin-selected cells stably expressing hKLB from pcDNA3.1(+)
T1 sequence (Q86Z14 1-1044): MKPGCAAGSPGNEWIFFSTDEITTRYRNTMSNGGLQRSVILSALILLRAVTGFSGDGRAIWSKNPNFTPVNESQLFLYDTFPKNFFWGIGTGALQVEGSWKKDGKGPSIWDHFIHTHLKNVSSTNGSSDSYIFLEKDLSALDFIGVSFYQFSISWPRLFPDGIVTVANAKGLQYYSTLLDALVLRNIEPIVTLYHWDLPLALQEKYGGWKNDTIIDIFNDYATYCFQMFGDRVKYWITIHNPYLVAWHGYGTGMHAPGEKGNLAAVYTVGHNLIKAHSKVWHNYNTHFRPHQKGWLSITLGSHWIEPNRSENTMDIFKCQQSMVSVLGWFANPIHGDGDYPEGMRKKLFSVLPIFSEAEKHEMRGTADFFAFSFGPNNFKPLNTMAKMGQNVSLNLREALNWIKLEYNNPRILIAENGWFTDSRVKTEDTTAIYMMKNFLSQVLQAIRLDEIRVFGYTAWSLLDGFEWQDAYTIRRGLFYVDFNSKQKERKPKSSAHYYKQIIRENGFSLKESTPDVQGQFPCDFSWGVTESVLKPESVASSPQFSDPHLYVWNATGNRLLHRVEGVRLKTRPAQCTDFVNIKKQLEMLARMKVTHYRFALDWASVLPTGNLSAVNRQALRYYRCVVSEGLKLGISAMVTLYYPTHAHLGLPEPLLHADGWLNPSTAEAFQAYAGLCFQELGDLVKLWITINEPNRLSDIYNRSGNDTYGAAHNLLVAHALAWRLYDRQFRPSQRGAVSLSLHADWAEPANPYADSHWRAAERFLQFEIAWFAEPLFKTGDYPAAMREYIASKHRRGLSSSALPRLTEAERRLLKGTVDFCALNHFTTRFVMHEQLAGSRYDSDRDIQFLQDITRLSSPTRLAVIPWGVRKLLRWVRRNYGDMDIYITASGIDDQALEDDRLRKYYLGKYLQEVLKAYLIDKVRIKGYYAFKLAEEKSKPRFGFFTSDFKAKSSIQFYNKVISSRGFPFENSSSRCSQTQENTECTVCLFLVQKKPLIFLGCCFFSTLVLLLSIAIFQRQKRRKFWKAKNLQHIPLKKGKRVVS
Assay: cell-based
Type: cell-based
Conditions: for Emax: Table 1, native sequence = 100% response, read-out: % max activity; for % Activity vs C25: Table 3, D-amino acid scan, C25 = 100; for antagonism of FGF21 activity (in words): 10 nM FGF21 stimulation, 293 HEK hKLB cells
Description: Cells were cultured in 10% Fetal Bovine Serum containing DMEM High glucose GLUTAMAX® at 37 C, 95% humidity, 5% CO2. For generating the cell line with stable expression, human KLB gene was synthesized by Genscript and subcloned into pcDNA3.1(+) with ZEOCIN® resistance vector (INVITROGEN®) by NheI and NotI restriction enzyme sites. HEK 293T cells were obtained from ATCC and were transiently transfected at 80% confluency using Lipofectamine 3000 (Invitrogen). Selection for KLB-expressing cells was initiated 48 hours post-transfection in the growth media containing 100 μg/ml of ZEOCIN® (Gibco) and continued for 4 weeks with fresh media added every third day. Human KLB expression in pooled cells was confirmed by Western blot and a functional FGF21 MAPK phosphorylation assay.
293 HEK cells expressing hKLB were plated to 90% confluency in 96 well plates coated with poly-D-Lysine. Cells were serum starved for three hours in 0.1% BSA containing media prior to stimulation with protein and/or an antagonist peptide for ten minutes at 37° C. The cell lysate was used for the detection of phospho-Erk1/2 levels by AlphaSureFire kit using the prescribed protocol. The degree of biochemical activation was recorded and analyzed using Origin software by logistic curve fitting. Tests at each concentration were done in triplicates, and the standard deviation is as shown in the graphs. The calculation of maximal activities was done keeping the FGF21 157-181 or FGF19 169-194 peptide activity as standard. The difference between the Erk1/2 phosphorylation signal for the highest (10 μM) and the lowest (0 μM) tested dose for native peptide was considered as 100% and accordingly all the other values were assigned.

[1] = Table 6, derivatives of SEQ ID NO: 180
[2] = Table 5, FGF19/FGF21 chimeric peptides
[3] = FIG. 8A, substitutions at terminal position of FGF19 169-194 peptide
[4] = Table 1, alanine scan of FGF21 25mer, antagonism of native FGF21 response
[5] = Table 2(A), FGF21 157-181 alanine mutants, ≥95% maximal activity

## PPDAGSSDPLSMVGPSQGRSPSYAS-NH2 (C-terminus assumed) [Peptide A4, PPDAGSSDPLSMVGPSQGRSPSYAS]
  Emax: 63.6%

## CSCC[C@H](NC(=O)[C@H](CO)NC(=O)[C@H](CC(C)C)NC(=O)[C@@H]1CCCN1C(=O)[C@H](CC(=O)O)NC(=O)[C@H](CO)NC(=O)[C@H](CO)NC(=O)CNC(=O)[C@@H](NC(=O)[C@H](CC(=O)O)NC(=O)[C@@H]1CCCN1C(=O)[C@@H]1CCCN1)C(C)C)C(=O)N[C@H](C(=O)NCC(=O)N1CCC[C@H]1C(=O)N[C@@H](CO)C(=O)N[C@@H](CCC(N)=O)C(=O)NCC(=O)N[C@H](CCCNC(=N)N)C(=O)N[C@@H](CO)C(=O)N1CCC[C@H]1C(=O)N[C@@H](CO)C(=O)N[C@@H](Cc1ccc(O)cc1)C(=O)N[C@@H](C)C(=O)N[C@@H](CO)C(N)=O)C(C)C [d19, PPDVG SSDPL SMVGP SQGrS PSYAS] (H-PPDVGSSDPLSMVGPSQG[dR]SPSYAS-NH2; N-terminus and C-terminus assumed)
  % Activity vs C25: 270.70 ± 136.83%
Relative to native C-terminal peptide
  fold increase of antagonistic potency over the native peptide: 2 fold

## FGF21 160-181: C-terminal fragment of FGF21 described as 24-amino acid (VGSSDPLSMVGPSQGRSPSYAS; UniProt Q9NSA1 188-209, looked up, fragment) [reference compound]
  antagonism of FGF21 activity (in words): dramatically improved its antagonistic potential

## PPDVFSMDPFGLVGPSQGRSPSFEA-NH2 (C-terminus assumed) [Peptide 0480]
[1]
  IC50: 0.0026 ± 0.0005 µM

## PPDVGSSDPASMVGPSQGRSPSYAS-NH2 (C-terminus assumed) [Peptide A10, PPDVGSSDPASMVGPSQGRSPSYAS]
  Emax: 76%

## PPDVGSSDPFGLVGPSQGRSPSFEA-NH2 (C-terminus assumed) [Peptide 0486]
[1]
  IC50: 0.0047 ± 0.0016 µM

## PPDVGSMDPFGLVTGLEAVRSPSYAA-NH2 (C-terminus assumed) [Peptide 0433]
[2]
  IC50: 0.0107 ± 0.0007 µM

## PPDVGSSDPLSMVTGLEAVRSPSFEA-NH2 (C-terminus assumed) [Peptide 0435]
[2]
  IC50: 0.0651 ± 0.0048 µM

## PLETDSSDPLSMVTGLEAVRSPSYAA-NH2 (C-terminus assumed) [Peptide 0434]
[2]
  IC50: 0.264 ± 0.0788 µM

## CSCC[C@H](NC(=O)[C@H](CO)NC(=O)[C@H](CC(C)C)NC(=O)[C@@H]1CCCN1C(=O)[C@H](CC(=O)O)NC(=O)[C@H](CO)NC(=O)[C@H](CO)NC(=O)CNC(=O)[C@@H](NC(=O)[C@H](CC(=O)O)NC(=O)[C@@H]1CCCN1C(=O)[C@@H]1CCCN1)C(C)C)C(=O)N[C@H](C(=O)NCC(=O)N1CCC[C@H]1C(=O)N[C@@H](CO)C(=O)N[C@@H](CCC(N)=O)C(=O)NCC(=O)N[C@@H](CCCNC(=N)N)C(=O)N[C@@H](CO)C(=O)N1CCC[C@@H]1C(=O)N[C@@H](CO)C(=O)N[C@@H](Cc1ccc(O)cc1)C(=O)N[C@@H](C)C(=O)N[C@@H](CO)C(N)=O)C(C)C [d21, PPDVG SSDPL SMVGP SQGRS pSYAS] (H-PPDVGSSDPLSMVGPSQGRS[dP]SYAS-NH2; N-terminus and C-terminus assumed)
  % Activity vs C25: 3.80 ± 0.87%

## PADVGSSDPLSMVGPSQGRSPSYAS-NH2 (C-terminus assumed) [Peptide A2, PADVGSSDPLSMVGPSQGRSPSYAS]
  Emax: 98.5%

## PPDVGSSDPLSMVGPSQGRSASYAS-NH2 (C-terminus assumed) [Peptide A21, PPDVGSSDPLSMVGPSQGRSASYAS]
  Emax: 70.5%

## PPDVGSMDPFGLVGRSQGRSPSFEA-NH2 (C-terminus assumed) [Peptide 0470]
[1]
  IC50: 0.0049 ± 0.0011 µM

## PPDVGSSDPLSMVGPSQGRSPAYAS-NH2 (C-terminus assumed) [Peptide A22, PPDVGSSDPLSMVGPSQGRSPAYAS]
  Emax: 78.5%

## PLETDSMDPFGLVTGLEAVRSPSFEL-NH2 (C-terminus assumed) [Peptide K194L]
[3]
  IC50: 0.0173 µM

## PLETDSMDPFGLVTGLEAVRSPSFES-NH2 (C-terminus assumed) [Peptide K194S]
[3]
  IC50: 0.0223 µM

## PPDVGSSDPLSMVGPSQGRSPSAAS-NH2 (C-terminus assumed) [Peptide A23, PPDVGSSDPLSMVGPSQGRSPSAAS]
  % max activity: 73.6%

## PPDVSSMDPFGLVGPSQGRSPSFEA-NH2 (C-terminus assumed) [Peptide 0482]
[1]
  IC50: 0.003 ± 0.0013 µM

## PPDVGSSDPLSMVGPAQGRSPSYAS-NH2 (C-terminus assumed) [Peptide A16, PPDVGSSDPLSMVGPAQGRSPSYAS]
[4]
  IC50: 0.12 µM
  Emax: 101%

## FGF19 (amino acids 165-194): C-terminal peptide of FGF19, amino acids 165-194 (FLPMLPMVPEEPEDLRGHLESDMFSSPLET) [reference compound]
  antagonism of FGF21 activity (in words): exhibit antagonism to FGF21 activity

## PPDVGSSDPLSMVGPSQARSPSYAS-NH2 (C-terminus assumed) [Peptide A18, PPDVGSSDPLSMVGPSQARSPSYAS]
  % max activity: 102.9%
[4]
  IC50: 0.139 µM
[5]
  IC50: 0.15 µM

## PLETDSMDPFGLVGPSQGRSPSFEA-NH2 (C-terminus assumed) [Peptide 0430]
[2]
  IC50: 0.0159 ± 0.0011 µM

## FGF21 159-181: 23-amino acid C-terminal fragment of FGF21 (DVGSSDPLSMVGPSQGRSPSYAS; UniProt Q9NSA1 187-209, looked up, fragment) [reference compound]
  antagonism of FGF21 activity (in words): weak antagonism

## FGF21 (amino acids 153-181): C-terminal peptide of FGF21, amino acids 153-181 (LAPQPPDVGSSDPLSMVGPSQGRSPSYAS) [reference compound]
  antagonism of FGF21 activity (in words): exhibit antagonism to FGF21 activity

## CSCC[C@H](NC(=O)[C@H](CO)NC(=O)[C@H](CC(C)C)NC(=O)[C@@H]1CCCN1C(=O)[C@H](CC(=O)O)NC(=O)[C@H](CO)NC(=O)[C@H](CO)NC(=O)CNC(=O)[C@@H](NC(=O)[C@H](CC(=O)O)NC(=O)[C@@H]1CCCN1C(=O)[C@@H]1CCCN1)C(C)C)C(=O)N[C@H](C(=O)NCC(=O)N1CCC[C@H]1C(=O)N[C@@H](CO)C(=O)N[C@@H](CCC(N)=O)C(=O)NCC(=O)N[C@@H](CCCNC(=N)N)C(=O)N[C@@H](CO)C(=O)N1CCC[C@H]1C(=O)N[C@@H](CO)C(=O)N[C@@H](Cc1ccc(O)cc1)C(=O)N[C@@H](C)C(=O)N[C@H](CO)C(N)=O)C(C)C [d25, PPDVG SSDPL SMVGP SQGRS PSYAs] (H-PPDVGSSDPLSMVGPSQGRSPSYA[dS]-NH2; N-terminus and C-terminus assumed)
Table 3, D-amino acid scan of FGF21 C-terminal 25mer
  IC50: 0.264 ± 0.12 µM

## PPDVGSSDPLSMAGPSQGRSPSYAS-NH2 (C-terminus assumed) [Peptide A13, PPDVGSSDPLSMAGPSQGRSPSYAS]
  Emax: 87.9%

## PPDVGSSDPLSMVGPSQGASPSYAS-NH2 (C-terminus assumed) [Peptide A19, PPDVGSSDPLSMVGPSQGASPSYAS]
[4]
  IC50: 0.102 µM
  Emax: 100%

## PPDVGASDPLSMVGPSQGRSPSYAS-NH2 (C-terminus assumed) [Peptide A6, PPDVGASDPLSMVGPSQGRSPSYAS]
  Emax: 89.2%

## PPDVGSSDPLSMVAPSQGRSPSYAS-NH2 (C-terminus assumed) [Peptide A14, PPDVGSSDPLSMVAPSQGRSPSYAS]
  % max activity: 97.7%
[5]
  IC50: 0.13 µM
